# According to ChEMBL document CHEMBL4819085, “Dipyridyl-substituted thiosemicarbazone as a potent broad-spectrum inhibitor of metallo-β-lactamases” (Bioorg Med Chem, 2021):
# Activity calls are given as the source filed them. The rule behind the calls is not given here.
# How the values were obtained:
# Bacteria = assay: Inhibition of bacterial NDM-1 expressed in Escherichia coli BL21 (DE3) at 20 uM using meropenem as substrate incubated for 1 hr by spectrometry analysis relative to control
# Escherichia coli [1] = assay: Inhibition of Escherichia coli ImiS assessed as reduction in bacterial growth incubated for 24 hrs by broth microdilution method
# Escherichia coli [2] = assay: Antibacterial activity against Escherichia coli 04 assessed as reduction in bacterial growth incubated for 24 hrs by broth microdilution method; assay type: functional
# Escherichia coli [3] = assay: Antibacterial activity against Escherichia coli 06 assessed as reduction in bacterial growth incubated for 24 hrs by broth microdilution method; assay type: functional
# Escherichia coli [4] = assay: Inhibition of Escherichia coli IMP-1 assessed as reduction in bacterial growth incubated for 24 hrs by broth microdilution method
# Pseudomonas aeruginosa = assay: Antibacterial activity against Carbapenem-resistant Pseudomonas aeruginosa assessed as reduction in bacterial growth incubated for 24 hrs by broth microdilution method; assay type: functional
# Escherichia coli [5] = assay: Antibacterial activity against Escherichia coli 01 assessed as reduction in bacterial growth incubated for 24 hrs by broth microdilution method; assay type: functional
# Klebsiella pneumoniae [6] = assay: In vivo antibacterial activity against Klebsiella pneumoniae producing NDM-1 infected in mouse assessed as reduction in bacterial load in liver at 10 mg/kg, ip; assay type: functional, organism-based
# Staphylococcus aureus = assay: Antibacterial activity against methicillin-resistant Staphylococcus aureus assessed as reduction in bacterial growth incubated for 24 hrs by broth microdilution method; assay type: functional
# Klebsiella pneumoniae [7] = assay: In vivo antibacterial activity against Klebsiella pneumoniae producing NDM-1 infected in mouse assessed as reduction in bacterial load in spleen at 10 mg/kg, ip; assay type: functional, organism-based
# Escherichia coli [8] = assay: Antibacterial activity against Escherichia coli 08 assessed as reduction in bacterial growth incubated for 24 hrs by broth microdilution method; assay type: functional
# Escherichia coli [9] = assay: Inhibition of Escherichia coli L1 assessed as reduction in bacterial growth incubated for 24 hrs by broth microdilution method
# [10] = molecular target: Metallo-beta-lactamase (Escherichia coli) (UniProt Q5U7L7); assay: Inhibition of Escherichia coli VIM-2 assessed as reduction in bacterial growth incubated for 24 hrs by broth microdilution method
# Escherichia coli [11] = assay: Inhibition of Escherichia coli NDM-1 assessed as reduction in bacterial growth incubated for 24 hrs by broth microdilution method
# Klebsiella pneumoniae [12] = assay: Antibacterial activity against Klebsiella pneumoniae assessed as reduction in bacterial growth incubated for 24 hrs by broth microdilution method; assay type: functional
# Enterococcus faecium = assay: Antibacterial activity against vancomycin-resistant Enterococcus faecium assessed as reduction in bacterial growth incubated for 24 hrs by broth microdilution method; assay type: functional
# Escherichia coli [13] = assay: Antibacterial activity against Escherichia coli 24 assessed as reduction in bacterial growth incubated for 24 hrs by broth microdilution method; assay type: functional
# [14] = Inhibition of bacterial L1 using meropenem as substrate incubated for 1 hr by spectrometry analysis; parameters: species or system Bacteria
# [15] = Inhibition of bacterial NDM-1 expressed in Escherichia coli BL21 (DE3) using meropenem as substrate incubated for 1 hr by spectrometry analysis; parameters: species or system Bacteria
# [16] = Inhibition of bacterial IMP-1 using meropenem as substrate incubated for 1 hr by spectrometry analysis; parameters: species or system Bacteria
# [17] = Inhibition of bacterial ImiS expressed in Escherichia coli BL21 (DE3) using meropenem as substrate incubated for 1 hr by spectrometry analysis; parameters: species or system Bacteria
# [18] = Inhibition of bacterial VIM-2 expressed in Escherichia coli BL21 (DE3) using meropenem as substrate incubated for 1 hr by spectrometry analysis; parameters: species or system Bacteria
compound,measurement,setting,value
C[C@@H](O)[C@H]1C(=O)N2C(C(=O)O)=C(S[C@@H]3CN[C@H](C(=O)N(C)C)C3)[C@H](C)[C@H]12 [MEROPENEM],inhibition,Bacteria,> 90%
same,MIC,Escherichia coli [1],64 µg/mL
same,MIC,Escherichia coli [2],0.064 mg/mL
same,MIC,Escherichia coli [3],128 µg/mL
same,MIC,Escherichia coli [4],32 µg/mL
same,MIC,Pseudomonas aeruginosa,8 µg/mL
same,MIC,Escherichia coli [5],0.128 mg/mL
same,inhibition,Klebsiella pneumoniae [6],Active
same,MIC,Staphylococcus aureus,64 µg/mL
same,inhibition,Klebsiella pneumoniae [7],Active
same,MIC,Escherichia coli [8],128 µg/mL
same,MIC,Escherichia coli [9],128 µg/mL
same,MIC,[10],64 µg/mL
same,MIC,Escherichia coli [11],128 µg/mL
same,MIC,Klebsiella pneumoniae [12],256 µg/mL
same,MIC,Enterococcus faecium,256 µg/mL
same,MIC,Escherichia coli [13],0.128 mg/mL
CO/N=C(\C(=O)N[C@@H]1C(=O)N2C(C(=O)O)=C(CSc3nc(=O)c(O)nn3C)CS[C@H]12)c1csc(N)n1 [CEFTRIAXONE],MIC,Escherichia coli [2],16 mg/mL
same,MIC,Escherichia coli [3],16000 µg/mL
same,MIC,Pseudomonas aeruginosa,64 µg/mL
same,MIC,Escherichia coli [5],16 mg/mL
same,MIC,Staphylococcus aureus,4100 µg/mL
same,MIC,Escherichia coli [8],16000 µg/mL
same,MIC,Klebsiella pneumoniae [12],8190 µg/mL
same,MIC,Enterococcus faecium,512 µg/mL
same,MIC,Escherichia coli [13],16 mg/mL
Cc1nnc(SCC2=C(C(=O)O)N3C(=O)[C@@H](NC(=O)Cn4cnnn4)[C@H]3SC2)s1 [CEFAZOLIN],MIC,Escherichia coli [2],4.1 mg/mL
same,MIC,Escherichia coli [3],4100 µg/mL
same,MIC,Pseudomonas aeruginosa,> 16000 µg/mL
same,MIC,Escherichia coli [5],16 mg/mL
same,MIC,Staphylococcus aureus,4100 µg/mL
same,MIC,Escherichia coli [8],4100 µg/mL
same,MIC,Klebsiella pneumoniae [12],4100 µg/mL
same,MIC,Enterococcus faecium,8130 µg/mL
same,MIC,Escherichia coli [13],4.1 mg/mL
CO/N=C(\C(=O)N[C@@H]1C(=O)N2C(C(=O)O)=C(COC(C)=O)CS[C@H]12)c1csc(N)n1 [CEFOTAXIME],MIC,Escherichia coli [2],> 16 mg/mL
same,MIC,Escherichia coli [3],8190 µg/mL
same,MIC,Pseudomonas aeruginosa,> 16000 µg/mL
same,MIC,Escherichia coli [5],16 mg/mL
same,MIC,Staphylococcus aureus,1020 µg/mL
same,MIC,Escherichia coli [8],8190 µg/mL
same,MIC,Klebsiella pneumoniae [12],16000 µg/mL
same,MIC,Enterococcus faecium,4100 µg/mL
same,MIC,Escherichia coli [13],16 mg/mL
O=C(O)C(=O)CBr [BROMOPYRUVATE],IC50,[14],> 40 µM
same,IC50,[15],2570 nM
same,IC50,[16],28.9 µM
same,IC50,[17],> 40 µM
same,IC50,[18],18.7 µM
CC1(C)S[C@@H]2[C@H](NC(=O)[C@H](N)c3ccccc3)C(=O)N2[C@H]1C(=O)O [AMPICILLIN],MIC,Escherichia coli [2],> 16 mg/mL
same,MIC,Escherichia coli [3],8190 µg/mL
same,MIC,Pseudomonas aeruginosa,> 16000 µg/mL
same,MIC,Escherichia coli [5],> 16 mg/mL
same,MIC,Staphylococcus aureus,> 16000 µg/mL
same,MIC,Escherichia coli [8],> 16000 µg/mL
same,MIC,Klebsiella pneumoniae [12],8190 µg/mL
same,MIC,Enterococcus faecium,> 16000 µg/mL
same,MIC,Escherichia coli [13],16 mg/mL
